Patent EP0508792A1, “Anti-tumor and anti-psoriatic agents” (SCHERING CORPORATION, priority 1991, dated 1992)

Tests used:
PKC = experiment: Mixed micellar protein kinase C (PKC) assay, in vitro inhibition of PKC; type: biochemical; conditions: partially purified rat brain PKC; histone III-S substrate; 23°C, 15 minutes; 2% DMSO
Experimental: The below listed Test Methods A and B were run in accordance with the procedures described in Bishop, W.R., Petrin, J., Wang, L., Ramesh, U., and Doll, R.J. (1990) Biochemical Pharmacology 40: No. 9, pp. 2129-2135 and Hannun et al, J. Biol. Chem. 260, 10039-10043, (1985), which are herein incorporated by reference.The following modifications were made in this procedure:
A. Protein Kinase C ("PKC") Protocol
Mixed micellular protein kinase C assays were conducted by the methods described in the two articles cited just above, (namely, Bishop et al, and Hannun et al), in a reaction mixture (0.25 mL total volume) containing: 20 mM Tris-HCl (pH 7.5); […] histone III-S; 10 mM MgCl2; 5 mM [g-32P]ATP (4 x 10^6 cpm/nmol); […] CaCl2; 32 mg/mL of phosphatidylserine; […] of 1-oleoyl-2-acetyl-glycerol and various concentrations of compounds of this invention added from a dimethyl-sulfoxide (DMSO) stock solution. The final concentration of DMSO in the reaction was 2% w/v. Reactions were started by addition of approximately […] of partially purified rat brain PKC and allowed to proceed at 23°C for 15 minutes. Reactions were terminated by collection of trichloroacetic acid-precipitated phosphorylated histone on GF/C filters using a Brandel Cell Harvester (Model No. M-24-R).

[1] = system: Normal Human Keratinocytes (NHEK); experiment: 3H thymidine uptake in normal human keratinocytes (NHEK); type: cell-based; conditions: for % Inhibition of Control: compound at 5x10⁻⁶ molar, 3H thymidine pulse 20 hours, average of 8 wells
Experimental: ^3H Thymidine Uptake in Normal Human Keratinocytes (NHEK): Effects of Compounds of the Invention
Second passage NHEK cells grown in MCDB 153 media with a 5% CO2 air mixture at 37° were used for experiments. Compounds of the invention which were tested were prepared at 5mM stock solutions in DMSO. Cells were grown to 60-80% confluency in 6 well trays. Compounds were added to give a concentration of 5x10⁻⁶ molar and cultures were simultaneously pulsed with 1 microCurie/mL ^3H thymidine for 20 hours. Cells were then harvested and tritium was counted using a liquid scintillation counter; results are the average of 8 wells per compound. In the control, when no compound is employed, there is 0% inhibition of thymidine uptake.
A dose response study of the compound from Example 35, using the just above described test was conducted. Concentrations of the compound from Example 35 ranging from 5x10⁻⁵ to 5x10⁻⁶ M in tenfold dilutions were conducted.

SMILES | IC50 (PKC) [nM] | % Inhibition of Control [1] [%] | IC50 ([1]; Homo sapiens, 20 h, dose response study, 3H thymidine uptake in NHEK, read-out: IC₅₀) [nM]
O=C1NC(=O)c2c1c1c3ccccc3n3c1c1c2c2ccccc2n1[C@@H]1O[C@H]3C[C@H]1C(=O)NCc1ccccc1 (relative stereo) [Example 66] | 20 | – | –
O=C1NC(=O)c2c1c1c3ccccc3n3c1c1c2c2ccccc2n1[C@@H]1O[C@H]3C[C@H]1CO (relative stereo) [Example 36] | 10 | – | –
O=C1NC(=O)c2c1c1c3ccccc3n3c1c1c2c2ccccc2n1[C@@H]1O[C@H]3C[C@H]1Cn1ccnc1 (relative stereo) [Example 48] | 7 | – | –
O=C1NC(=O)c2c1c1c3ccccc3n3c1c1c2c2ccccc2n1[C@H]1CC[C@@H]3O1 [Example 22] | – | 77.3 | –
Cc1ccc2c(c1)c1c(Br)c(Br)c3c4cc(C)ccc4n4c3c1n2[C@@H]1CC[C@H]4O1 [Example 27] | 18 | – | –
CC(C)(C)OC(=O)CNC(=O)[C@@H]1C[C@@H]2O[C@H]1n1c3ccccc3c3c4c(c5c6ccccc6n2c5c31)C(=O)NC4=O (relative stereo) [Example 64] | 19 | – | –
NC(=O)[C@@H]1C[C@@H]2O[C@H]1n1c3ccccc3c3c4c(c5c6ccccc6n2c5c31)C(=O)NC4=O (relative stereo) [Example 67] | 0.6 | – | –
Cc1ccc2c(c1)c1c3c(c4c5cc(C)ccc5n5c4c1n2[C@@H]1CC[C@H]5O1)C(=O)NC3=O [Example 30] | 50 | – | –
CN(C)C(=O)[C@@H]1C[C@@H]2O[C@H]1n1c3ccccc3c3c4c(c5c6ccccc6n2c5c31)C(=O)NC4=O (relative stereo) [Example 68] | 1 | – | –
CS(=O)(=O)OC[C@@H]1C[C@@H]2O[C@H]1n1c3ccccc3c3c4c(c5c6ccccc6n2c5c31)C(=O)NC4=O (relative stereo) [Example 40] | 15 | – | –
O=C1NC(O)c2c1c1c3ccccc3n3c1c1c2c2ccccc2n1[C@H]1CC[C@@H]3O1 (stereo partly drawn) [Example 26] | 19 | – | –
Cc1ccc2c(c1)c1c(C#N)c(C#N)c3c4cc(C)ccc4n4c3c1n2[C@@H]1CC[C@H]4O1 [Example 28] | 58 | – | –
NC[C@@H]1C[C@@H]2O[C@H]1n1c3ccccc3c3c4c(c5c6ccccc6n2c5c31)C(=O)NC4=O (relative stereo) [Example 45] | 13 | – | –
O=C1NC(=O)c2c1c1c3ccccc3n3c1c1c2c2ccccc2n1[C@@H]1O[C@H]3C[C@H]1C(=O)O (relative stereo) [Example 63] | 20 | – | –
O=C(NC[C@@H]1C[C@@H]2O[C@H]1n1c3ccccc3c3c4c(c5c6ccccc6n2c5c31)C(=O)NC4=O)c1ccccc1 (relative stereo) [Example 46] | 230 | – | –
O=C1NCc2c1c1c3ccccc3n3c1c1c2c2ccccc2n1C1CCC3O1 (racemic) [Example 23] | – | 78.8 | –
Cc1ccc2c(c1)c1c3c(c4c5cc(C)ccc5n5c4c1n2[C@@H]1C[C@@H](CO)[C@H]5O1)C(=O)NC3=O (relative stereo) [Example 57] | 23 | – | –

Continued by falling IC50 (PKC), values first:

IC50 (PKC) [nM] | SMILES | % Inhibition of Control [1] [%] | IC50 ([1]; Homo sapiens, 20 h, dose response study, 3H thymidine uptake in NHEK, read-out: IC₅₀) [nM]
115 | NC(=O)[C@H]1C[C@@H]2O[C@H]1n1c3ccccc3c3c4c(c5c6ccccc6n2c5c31)C(=O)NC4=O (relative stereo) [Example 37] | – | –
42 | Cc1ccc2c(c1)c1c3c(c4c5cc(C)ccc5n5c4c1n2[C@@H]1CC[C@H]5O1)C(=N)NC3=O (relative stereo) [Example 29] | – | –
23 | Cc1ccc2c(c1)c1c3c(c4c5cc(C)ccc5n5c4c1n2[C@@H]1C[C@H](CO)[C@H]5O1)C(=O)NC3=O (relative stereo) [Example 58] | – | –
13 | S=C1NC(=S)c2c1c1c3ccccc3n3c1c1c2c2ccccc2n1[C@H]1CC[C@@H]3O1 [Example 25] | – | –
7.5 | [N-]=[N+]=NC[C@H]1C[C@@H]2O[C@H]1n1c3ccccc3c3c4c(c5c6ccccc6n2c5c31)C(=O)NC4=O (relative stereo) [Example 41] | – | –
7.5 | O=C1NC(=O)c2c1c1c3ccccc3n3c1c1c2c2ccccc2n1[C@@H]1O[C@H]3C[C@@H]1CO (relative stereo) [Example 35] | 99.2 | 1720
5 | CS(=O)(=O)OC[C@H]1C[C@@H]2O[C@H]1n1c3ccccc3c3c4c(c5c6ccccc6n2c5c31)C(=O)NC4=O (relative stereo) [Example 39] | – | –
4 | CN(C)C[C@@H]1C[C@@H]2O[C@H]1n1c3ccccc3c3c4c(c5c6ccccc6n2c5c31)C(=O)NC4=O (relative stereo) [Example 49] | – | –
1.4 | CO[C@H]1C[C@@H]2O[C@H]1n1c3ccccc3c3c4c(c5c6ccccc6n2c5c31)C(=O)NC4=O (relative stereo) [Example 38] | – | –
0.8 | O=C(O)CNC(=O)[C@@H]1C[C@@H]2O[C@H]1n1c3ccccc3c3c4c(c5c6ccccc6n2c5c31)C(=O)NC4=O (relative stereo) [Example 69] | – | –
0.5 | CNC(=O)[C@@H]1C[C@@H]2O[C@H]1n1c3ccccc3c3c4c(c5c6ccccc6n2c5c31)C(=O)NC4=O (relative stereo) [Example 65] | – | –
